Laboratory results published in article PMC7953027 (Journal of Pesticide Science, 2021).

Key:
A. albopictus larvae = test: Larvicidal assay on second-instar larvae; type: in vivo, Aedes albopictus; conditions: for larvicidal activity (in words): 1 µM, 3 days; for mortality at 1 µM / LC50: Aedes albopictus, 72 h; for mortality at 1 µM: read-out: Mortality (%) at 1 µM Obsd.; for LC50: read-out: pLC50 (M) (converted); for Logit A Obsd.: logit-transformed mortality at 1 µM based on Eq. 1
Aedes albopictus EcRs = target: T1, Aedes albopictus EcRs (Aedes albopictus, UniProt Q9U3Y4); type: binding; conditions: for change in binding potency compared to the parent compound: 21, 22, 23 vs. 1, 28, 31 vs. 22; for pIC50 (M): Series II, [3H]PonA binding, NIAS-AeAl-2 cells, 30 min, 25°C, mean±SD
T1 sequence (Q9U3Y4 1-680): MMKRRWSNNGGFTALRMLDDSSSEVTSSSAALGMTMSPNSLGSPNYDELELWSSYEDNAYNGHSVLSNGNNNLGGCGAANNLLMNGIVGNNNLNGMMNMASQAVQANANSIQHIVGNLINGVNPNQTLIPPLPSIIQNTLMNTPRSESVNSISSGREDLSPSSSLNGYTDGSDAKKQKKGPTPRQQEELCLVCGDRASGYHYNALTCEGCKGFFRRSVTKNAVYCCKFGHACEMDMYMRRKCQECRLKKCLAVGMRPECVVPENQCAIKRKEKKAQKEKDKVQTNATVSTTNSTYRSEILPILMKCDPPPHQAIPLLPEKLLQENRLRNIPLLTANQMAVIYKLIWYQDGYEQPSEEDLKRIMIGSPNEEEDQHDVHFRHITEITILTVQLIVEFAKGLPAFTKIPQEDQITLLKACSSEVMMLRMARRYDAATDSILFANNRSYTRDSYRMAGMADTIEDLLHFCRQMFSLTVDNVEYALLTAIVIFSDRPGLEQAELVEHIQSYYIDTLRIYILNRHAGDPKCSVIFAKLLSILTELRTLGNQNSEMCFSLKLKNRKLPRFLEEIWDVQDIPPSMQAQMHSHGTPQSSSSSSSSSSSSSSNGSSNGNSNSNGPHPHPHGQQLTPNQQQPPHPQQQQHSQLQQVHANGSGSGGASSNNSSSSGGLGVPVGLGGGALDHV
T1 sequence (Q9U3Y3 1-485 partner): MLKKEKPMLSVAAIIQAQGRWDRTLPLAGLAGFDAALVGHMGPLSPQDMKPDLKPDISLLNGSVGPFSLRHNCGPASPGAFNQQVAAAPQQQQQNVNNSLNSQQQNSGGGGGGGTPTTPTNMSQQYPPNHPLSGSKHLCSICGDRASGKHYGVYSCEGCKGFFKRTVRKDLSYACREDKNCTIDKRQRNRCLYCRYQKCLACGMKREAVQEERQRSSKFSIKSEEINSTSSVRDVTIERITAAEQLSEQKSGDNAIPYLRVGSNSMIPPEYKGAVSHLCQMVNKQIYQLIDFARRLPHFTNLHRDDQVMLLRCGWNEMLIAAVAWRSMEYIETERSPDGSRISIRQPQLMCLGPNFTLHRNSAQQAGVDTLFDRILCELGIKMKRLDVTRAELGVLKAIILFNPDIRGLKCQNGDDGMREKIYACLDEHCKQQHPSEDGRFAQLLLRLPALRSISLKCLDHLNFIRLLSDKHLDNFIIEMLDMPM

Row | SMILES | larvicidal activity (in words) (A. albopictus larvae) | mortality at 1 µM (A. albopictus larvae) [%] | change in binding potency compared to the parent compound (Aedes albopictus EcRs) | pIC50 (M) (Aedes albopictus EcRs) | LC50 (A. albopictus larvae) [M] | Logit A Obsd. (A. albopictus larvae)
1 | C[C@@H]1C[C@H](Nc2ccccc2)c2cc(F)ccc2N1C(=O)c1ccccn1 [Compound 21, (2R,4S)-6-fluoro-2-methyl-4-(phenylamino)-1-(2-pyridylcarbonyl)-1,2,3,4-tetrahydroquinoline] | did not show larvicidal activity | 0 | threefold loss in potency | 5.93±0.08 (2) M |  | 
2 | C[C@@H]1C[C@H](Nc2ccccc2)c2cc(F)ccc2N1C(=O)c1cccnc1 [Compound 22] | did not show larvicidal activity | 0 |  | 6.76±0.15 (2) M |  | 
3 | C[C@@H]1C[C@H](Nc2ccccc2)c2cc(F)ccc2N1C(=O)c1ccncc1 [Compound 23, (2R,4S)-6-fluoro-2-methyl-4-(phenylamino)-1-(4-pyridylcarbonyl)-1,2,3,4-tetrahydroquinoline] |  | 36 ± 14 | eightfold gain in potency | 7.29±0.03 (2) M | 2.57e-06 | −0.24
4 | C[C@@H]1C[C@H](Nc2ccccc2)c2cc(F)ccc2N1C(=O)c1ccncn1 [Compound 24] |  | 10 |  | 6.67±0.03 (2) M |  | −0.95
5 | C[C@@H]1C[C@H](Nc2ccccc2)c2cc(F)ccc2N1C(=O)c1ccnnc1 [Compound 25] |  | 10 |  | 6.51±0.13 (2) M |  | −0.95
6 | C[C@@H]1C[C@H](Nc2ccccc2)c2cc(F)ccc2N1C(=O)c1cncnc1 [Compound 26] |  | 5 |  | 6.37±0.02 (2) M |  | −1.28
7 | C[C@@H]1C[C@H](Nc2ccccc2)c2cc(F)ccc2N1C(=O)c1cnc(Cl)nc1 [Compound 27] |  | 16 |  | 6.11±0.12 (2) M |  | −0.72
8 | Cc1ccc(C(=O)N2c3ccc(F)cc3[C@@H](Nc3ccccc3)C[C@H]2C)cn1 [Compound 28] |  | 11 | equipotent | 6.64±0.08 (2) M |  | −0.91
9 | C[C@@H]1C[C@H](Nc2ccccc2)c2cc(F)ccc2N1C(=O)c1ccc(Cl)nc1 [Compound 29] |  | 80 |  | 7.09±0.07 (2) M | 4.57e-07 | 0.60
10 | C[C@@H]1C[C@H](Nc2ccccc2)c2cc(F)ccc2N1C(=O)c1ccc(C(F)(F)F)nc1 [Compound 30] |  | 44 ± 24 |  | 7.03±0.00 (2) M | 9.55e-07 | −0.10
11 | C[C@@H]1C[C@H](Nc2ccccc2)c2cc(F)ccc2N1C(=O)c1ccc(C#N)nc1 [Compound 31] |  | 77 ± 19 | sevenfold gain in potency | 7.61±0.08 (2) M | 5.13e-07 | 0.51
12 | C[C@@H]1C[C@H](Nc2ccccc2)c2cc(F)ccc2N1C(=O)c1ccnc(F)c1 [Compound 32] |  | 74 ± 11 |  | 7.47±0.08 (2) M | 4.68e-07 | 0.44
13 | C[C@@H]1C[C@H](Nc2ccccc2)c2cc(F)ccc2N1C(=O)c1ccnc(C(F)(F)F)c1 [Compound 34] | did not show larvicidal activity | 0 |  | 6.56±0.04 (2) M |  | 
14 | C[C@@H]1C[C@H](Nc2ccccc2)c2cc(F)ccc2N1C(=O)c1ccnc(C#N)c1 [Compound 35] | did not show larvicidal activity | 0 |  | 6.55±0.07 (2) M |  | 
